Where a name gives a salt, the structure may show the parent alone.
How the values were obtained:
[1] = molecular target: T1, phenylethanolamine N-methyltransferase (Oryctolagus cuniculus, UniProt G1TT82); assay: inhibition of phenylethanolamine N-methyltransferase in vitro (assay procedure of Pendleton and Snow); type: biochemical; details: read-out: inhibit phenylethanolamine N-methyltransferase; for inhibition at 100 µM: concentration 1.0 x 10-^4 (unit inferred); for inhibition at 1 µM: concentration 1.0 x 10-^6 (unit inferred)
T1 sequence (G1TT82 1-286): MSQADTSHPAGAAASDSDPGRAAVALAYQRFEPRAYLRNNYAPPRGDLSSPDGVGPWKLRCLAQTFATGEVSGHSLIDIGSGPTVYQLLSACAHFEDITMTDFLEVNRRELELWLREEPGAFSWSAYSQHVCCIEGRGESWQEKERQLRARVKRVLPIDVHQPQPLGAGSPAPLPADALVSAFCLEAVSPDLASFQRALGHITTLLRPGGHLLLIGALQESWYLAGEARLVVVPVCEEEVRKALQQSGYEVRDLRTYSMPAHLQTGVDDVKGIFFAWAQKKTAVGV

[2] = tested on: PNMT; assay: in vivo PNMT inhibition in mice: adrenal epinephrine/norepinephrine ratio, measured fluorometrically; details: male mice, oral, 50 mg/kg per day, twice a day for seven days, dosed again next morning, sacrificed two hours later; vehicle control 2.5 + 0.23; p <.01
Procedure: Male mice were dosed orally with either drug or vehicle control on a twice-a-day basis for seven consecutive days. On the morning of the next day they were again dosed and two hours later sacrificed by decapitation. The adrenal glands were then removed and analyzed fluorometrically for both epinephrine and norepinephrine content.

In the case of `c1cc2nnsc2c2c1CCNC2` [[1,2,3]thiadiazolo[4,5-h]-6,7,8,9-tetrahydroisoquinoline hydrochloride], the inhibition at 100 µM [1] is reported as 99% and the inhibition at 1 µM [1] is reported as 91%.
`c1cc2snnc2c2c1CCNC2` [[1,2,3]thiadiazolo[5,4-h]-6,7,8,9-tetrahydroisoquinoline hydrochloride] showed an adrenal epinephrine/norepinephrine ratio [2] of 1.3 ± 0.08, an inhibition at 100 µM [1] of 99% and an inhibition at 1 µM [1] of 94%.
